Results taken from article PMC6253765, “Synthesis and Herbicidal Activities of Novel 4-(4-(5-methyl-3-arylisoxazol-4-yl)thiazol-2-yl)piperidyl Carboxamides and Thiocarboxamides” (Molecules, 2009).

Molecular target: T1, D1 protease (CtpA) (Spinacia oleracea, UniProt Q36792)
T1 construct: native spinach CtpA protein purified from spinach thylakoid
T1 sequence (Q36792 147-539): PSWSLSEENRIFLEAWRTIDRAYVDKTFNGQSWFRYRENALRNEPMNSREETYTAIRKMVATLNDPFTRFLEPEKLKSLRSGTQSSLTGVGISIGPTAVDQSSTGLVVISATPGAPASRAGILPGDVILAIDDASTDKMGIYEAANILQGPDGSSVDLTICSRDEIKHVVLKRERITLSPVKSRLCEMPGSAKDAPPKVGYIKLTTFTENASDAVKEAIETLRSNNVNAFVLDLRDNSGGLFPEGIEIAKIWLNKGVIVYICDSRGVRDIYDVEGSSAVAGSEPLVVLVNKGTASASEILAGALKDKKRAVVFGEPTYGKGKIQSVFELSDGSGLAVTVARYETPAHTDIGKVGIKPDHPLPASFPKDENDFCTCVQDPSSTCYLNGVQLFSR
Assay: HPLC assay of cleavage of S24 peptide substrate; Dixon plot
Format: biochemical

For `CCCCNC(=O)N1CCC(c2nc(-c3c(-c4ccccc4F)noc3C)cs2)CC1` [4m, N-butyl-4-(4-(3-(2-fluorophenyl)-5-methylisoxazol-4-yl)thiazol-2-yl)piperidine-1-carboxamide], the Ki was 1.3 µM.
